Test results reported in PubChem BioAssay (NCI).
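In this assay, cells in 96-well plates receive the compound at five concentrations for 48 hours. Endpoints are linearly interpolated between the surrounding concentrations. TGI is the concentration that stops growth completely.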

What was measured:
Test in all cases: NCI-60 cell line screen, 48 h
MCF7 breast = system: MCF7 breast
NCI-H522 lung = system: NCI-H522 lung
SNB-75 CNS = system: SNB-75 CNS
UO-31 renal = system: UO-31 renal
UACC-257 melanoma = system: UACC-257 melanoma
OVCAR-3 ovarian = system: OVCAR-3 ovarian
SR leukemia = system: SR leukemia
EKVX NSCLC = system: EKVX NSCLC
OVCAR-5 ovarian = system: OVCAR-5 ovarian
SF-268 CNS = system: SF-268 CNS
MOLT-4 leukemia = system: MOLT-4 leukemia
U251 CNS = system: U251 CNS
HT29 colon = system: HT29 colon
OVCAR-4 ovarian = system: OVCAR-4 ovarian
SK-MEL-28 melanoma = system: SK-MEL-28 melanoma
BT-549 breast = system: BT-549 breast
HL-60(TB) leukemia = system: HL-60(TB) leukemia
SK-OV-3 ovarian = system: SK-OV-3 ovarian
COLO 205 colon = system: COLO 205 colon
NCI-H460 lung = system: NCI-H460 lung
HCT-15 colon = system: HCT-15 colon
SW-620 colon = system: SW-620 colon
TK-10 renal = system: TK-10 renal
UACC-62 melanoma = system: UACC-62 melanoma
CAKI-1 renal = system: CAKI-1 renal
OVCAR-8 ovarian = system: OVCAR-8 ovarian
MDA-N = system: MDA-N
SNB-19 CNS = system: SNB-19 CNS
HCT-116 colon = system: HCT-116 colon
SK-MEL-5 melanoma = system: SK-MEL-5 melanoma
IGROV1 ovarian = system: IGROV1 ovarian
SN12C renal = system: SN12C renal
RPMI-8226 leukemia = system: RPMI-8226 leukemia
HOP-62 NSCLC = system: HOP-62 NSCLC
K-562 leukemia = system: K-562 leukemia
SF-295 CNS = system: SF-295 CNS
ACHN renal = system: ACHN renal
CCRF-CEM leukemia = system: CCRF-CEM leukemia
M14 melanoma = system: M14 melanoma
786-0 renal = system: 786-0 renal
NCI-H23 lung = system: NCI-H23 lung
DU-145 prostate = system: DU-145 prostate
SF-539 CNS = system: SF-539 CNS
PC-3 prostate = system: PC-3 prostate
A549 NSCLC = system: A549 NSCLC
NCI-H226 lung = system: NCI-H226 lung
MALME-3M melanoma = system: MALME-3M melanoma
RXF 393 renal = system: RXF 393 renal
NCI/ADR-RES ovarian = system: NCI/ADR-RES ovarian
HCC-2998 colon = system: HCC-2998 colon

Measured: TGI

N#CCCC(CC#N)N1CCN(C(CC#N)CCC#N)CC1 (stereo not given)
> 100 µM: all assays above
